Data on 3 compounds can be found in ChEMBL document CHEMBL5346960, “Quantitative Attribution of the Protective Effects of Aminosterols against Protein Aggregates to Their Chemical Structures and Ability to Modulate Biological Membranes” (2023).

Activity calls are given as the source filed them. No cut-off for these calls is given here.

Assay [1] has as its system Lipid bilayer. The assay is described as follows: Binding affinity to large unilamellar vesicles liposome model assessed as saturation concentration by measuring increase in LUV mass incubated for 15 mins by light scattering analysis. Conditions: filed as modulator.
In assay [2] the test system is Lipid bilayer. The assay is described as follows: Binding affinity to large unilamellar vesicles liposome model assessed as saturation concentration by measuring increase in incorporated compound mass incubated for 15 mins by light scattering analysis. To be noted: filed as modulator.
The subject of assay [3] is Lipid bilayer. The assay is described as follows: Binding affinity to large unilamellar vesicles liposome model assessed as increase in LUV diameter incubated for 15 mins by light scattering analysis.
Assay [4] concerns Lipid bilayer. The assay is described as follows: Binding affinity to large unilamellar vesicles liposome model assessed as increase in LUV size incubated for 15 mins by light scattering analysis. Conditions: filed as modulator.
The subject of assay [5] is Lipid bilayer. The assay is described as follows: Binding affinity to large unilamellar vesicles liposome model assessed as increase in transition temperature […] (reference value: 24.5 +/- 2 degreeC). Conditions: filed as modulator.
In assay [6] the test system is Lipid bilayer. In words: Induction of membrane redistribution in large unilamellar vesicles liposome model assessed as mean shortest distance between BODIPY-FL C5-GM1 and BODIPY-542/563 C11-CHOL at 5 uM by FRET assay relative to control. To be noted: filed as modulator.
Assay [7] deals with Lipid bilayer. In words: Induction of membrane redistribution in large unilamellar vesicles liposome model assessed as mean shortest distance between BODIPY-FL-CHOL and BODIPY-542/563 C11-CHOL at 5 uM by FRET assay relative to control. To be noted: filed as modulator.
Assay [8] has as its system Lipid bilayer. The assay is described as follows: Displacement of alpha-synuclein from DMPS large unilamellar vesicles liposome model incubated for 15 mins by Far-UV CD spectroscopy. Conditions: filed as modulator, dose <= 70.0 µM.
Assay [9] has as its system SH-SY5Y. In words: Protection against human SH-SY5Y cells assessed as decrease in ADDL-induced cytosolic calcium level incubated for 15 mins by Fluo-4 AM dye based scanning confocal microscopic analysis. It is filed as functional, cell-based. To be noted: dose 0.05-5 µM.
Assay [10] relates to SH-SY5Y. In words: Protection against human SH-SY5Y cells assessed as decrease in ADDL-induced cytosolic calcium level at 5 uM incubated for 15 mins by Fluo-4 AM dye based scanning confocal microscopic analysis. To be noted: 0.25 h. Details: scale not given: the % may be the effect or the level left. In kind it is functional.
The subject of assay [11] is Lipid bilayer. The assay is described as follows: Induction of membrane redistribution in large unilamellar vesicles liposome model assessed as mean shortest distance between BODIPY-FL C5-GM1 and BODIPY-542/563 C11-CHOL at 5 uM by FRET assay (reference value: 65 +/- 1 Angstrom). Conditions: filed as modulator.
Assay [12] relates to Lipid bilayer. The assay is described as follows: Induction of membrane redistribution in large unilamellar vesicles liposome model assessed as mean shortest distance between BODIPY-FL-CHOL and BODIPY-542/563 C11-CHOL at 5 uM by FRET assay (reference value: 72 +/- 1 Angstrom). To be noted: filed as modulator.
The subject of assay [13] is Lipid bilayer. The assay is described as follows: Induction of membrane redistribution in large unilamellar vesicles liposome model assessed as mean shortest distance between BODIPY-FL-SM and BODIPY-542/563 C11-CHOL at 5 uM by FRET assay (reference value: 69 +/- 1 Angstrom). Conditions: filed as modulator.
For assay [14], the system named is Lipid bilayer. In words: Induction of membrane redistribution in large unilamellar vesicles liposome model assessed as mean shortest distance between BODIPY-FL-DOPC and BODIPY-542/563 C11-CHOL at 5 uM by FRET assay (reference value: 70 +/- 2 Angstrom). To be noted: filed as modulator.
Assay [15] has as its system Lipid bilayer. In words: Binding affinity to large unilamellar vesicles liposome model assessed as saturation concentration by microfluidic analysis. Conditions: filed as modulator.

For `C[C@H](CCC[C@H](C)C(=O)O)[C@H]1CC[C@H]2[C@@H]3[C@H](O)C[C@H]4C[C@@H](NCCCNCCCCNCCCN)CC[C@]4(C)[C@H]3CC[C@]12C`, the Activity with Lipid bilayer [1] was 43 µM; in the assay with Lipid bilayer [2], 43 µM; in the assay with Lipid bilayer [6] it was 57%; with Lipid bilayer [7] it was 64%; in the assay with Lipid bilayer [8], “Dose-Dependent Effect”; in the assay on SH-SY5Y [9], “Dose-Dependent Effect”. Moreover, the Activity came to 100% in the assay with SH-SY5Y [10]; 73 Angstrom in the assay on Lipid bilayer [11]; 63 Angstrom in the assay with Lipid bilayer [12]; 69 Angstrom with Lipid bilayer [13]; 67 Angstrom in the assay on Lipid bilayer [14]. For the same compound, the outcome in the assay with Lipid bilayer [3] was inactive. Also, the outcome in the assay on Lipid bilayer [4] was Active. In the assay on Lipid bilayer [5], the T turned out to be 46 °C.
Consider `CC(C)[C@@H](CC[C@@H](C)[C@H]1CC[C@H]2[C@@H]3[C@H](O)C[C@H]4C[C@@H](NCCCNCCCCN)CC[C@]4(C)[C@H]3CC[C@]12C)OS(=O)(=O)O` [SQUALAMINE], for which the Activity with Lipid bilayer [1] is 12 µM; with Lipid bilayer [2], 15 µM; with Lipid bilayer [6], 50%; with Lipid bilayer [7], 57%; with Lipid bilayer [8], “Dose-Dependent Effect”; in the assay with SH-SY5Y [9] it was “Dose-Dependent Effect”. The Activity in the assay with SH-SY5Y [10] was found to be 100%; in the assay on Lipid bilayer [11] it was 72 Angstrom; in the assay on Lipid bilayer [12] it was 64 Angstrom; with Lipid bilayer [13] it was 72 Angstrom; with Lipid bilayer [14] it was 68 Angstrom. The outcome in the assay on Lipid bilayer [3] was inactive. For the same compound, in the assay with Lipid bilayer [4], the outcome was Active. Moreover, the T in the assay on Lipid bilayer [5] amounted to 35 °C.
For `CC(C)[C@@H](CC[C@@H](C)[C@H]1CC[C@H]2[C@@H]3[C@H](O)C[C@H]4C[C@@H](NCCCNCCCCNCCCN)CC[C@]4(C)[C@H]3CC[C@]12C)OS(=O)(=O)O` [TRODUSQUEMINE], the Activity in the assay with Lipid bilayer [1] was 35 µM; in the assay with Lipid bilayer [2], 35 µM; in the assay on Lipid bilayer [15], 28 µM; with Lipid bilayer [6], 100%; in the assay on Lipid bilayer [7], 100%; in the assay with Lipid bilayer [8] it was “Dose-Dependent Effect”. Also, the Activity entry was “Dose-Dependent Effect” with SH-SY5Y [9]; 100% in the assay with SH-SY5Y [10]; 79 Angstrom in the assay with Lipid bilayer [11]; 58 Angstrom in the assay with Lipid bilayer [12]; 67 Angstrom with Lipid bilayer [13]; 68 Angstrom with Lipid bilayer [14]. In addition, the outcome in the assay on Lipid bilayer [3] was inactive. The result in the assay with Lipid bilayer [4] was Active. The T in the assay on Lipid bilayer [5] stood at 46 °C.
